Assays:
[1] = Cytotoxicity against human MT2 cells by MTT assay; type: cell-based
[2] = system: Human immunodeficiency virus 1; test: Ratio of compound IC50 to 1-(20-deoxy-40-C-ethynyl-beta-D-arabinofuranosyl)-thymine IC50 for HIV1 bearing VSV glycoprotein infected in human MT2 cells assessed as inhibition of viral replication after 48 hrs by luciferase reporter gene assay; type: functional
[3] = system: Human immunodeficiency virus 1; test: Antiviral activity against HIV1 bearing VSV glycoprotein infected in human MT2 cells assessed as inhibition of viral replication after 48 hrs by luciferase reporter gene assay; type: functional, organism-based; conditions: Human immunodeficiency virus 1, MT2, 48 h
[4] = system: Human immunodeficiency virus 1; test: Ratio of compound IC50 to zidovudine IC50 for HIV1 bearing VSV glycoprotein infected in human MT2 cells assessed as inhibition of viral replication after 48 hrs by luciferase reporter gene assay; type: functional
[5] = system: Human immunodeficiency virus 1; test: Antiviral activity against reverse transcriptase multidrug-resistant HIV1 infected in human TZM-bl cells assessed as inhibition of viral replication after 4 days by p24 based ELISA; type: functional, organism-based; conditions: Human immunodeficiency virus 1, TZM-bl, 96 h
[6] = system: Human immunodeficiency virus 1; test: Antiviral activity against HIV1 NL4-3 with reverse transcriptase K101E mutant infected in human TZM-bl cells assessed as inhibition of viral replication after 4 days by p24 based ELISA; type: functional, organism-based; conditions: Human immunodeficiency virus 1, NL4-3, TZM-bl, 96 h
[7] = system: Human immunodeficiency virus 1; test: Antiviral activity against wild type HIV1 NL4-3 infected in human TZM-bl cells assessed as inhibition of viral replication after 4 days by p24 based ELISA; type: functional, organism-based; conditions: Human immunodeficiency virus 1, NL4-3, TZM-bl, 96 h

Row | Structure (SMILES) | CC50 [1] [nM] | Ratio IC50 [2] | IC50 [3] [nM] | Ratio IC50 [4] | IC50 [5] [nM] | IC50 [6] [nM] | IC50 [7] [nM]
1 | C#C[C@]1(CO)O[C@@H](n2cc(C)c(=O)[nH]c2=O)[C@@H](F)[C@@H]1O | > 10000 | 10 | 86 | – | – | – | –
2 | C#C[C@]1(CO)O[C@@H](n2ccc(=O)[nH]c2=O)[C@@H](F)[C@@H]1O | > 10000 | – | 6530 | – | – | – | –
3 | C#C[C@]1(CO)O[C@@H](n2ccc(N)nc2=O)[C@@H](F)[C@@H]1O | > 10000 | – | 1.34 | 35 | 1.45 | 1.52 | 0.46
4 | Cc1cn([C@H]2C[C@H](N=[N+]=[N-])[C@@H](CO)O2)c(=O)[nH]c1=O [ZIDOVUDINE] | > 200000 | – | 47 | – | – | – | –

Source: ChEMBL document CHEMBL1177822, “Synthesis and anti-HIV activity of 2'-deoxy-2'-fluoro-4'-C-ethynyl nucleoside analogs” (Bioorg Med Chem Lett, 2010)
